Experimental data reported in PubChem BioAssay (NCI).
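The compound was tested at five concentrations on cells cultured in 96-well plates, with a 48-hour exposure period. At the TGI there is no net growth.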

How the values were obtained:
Test in all cases: NCI-60 cell line screen, 48 h
[1] = tested on: A498 renal
[2] = tested on: HCC-2998 colon
[3] = tested on: HCT-15 colon
[4] = tested on: M14 melanoma
[5] = tested on: MALME-3M melanoma
[6] = tested on: OVCAR-8 ovarian
[7] = tested on: SW-620 colon
[8] = tested on: TK-10 renal
[9] = tested on: UACC-257 melanoma
[10] = tested on: IGROV1 ovarian

Compound	TGI [1] [µM]	TGI [2] [µM]	TGI [3] [µM]	TGI [4] [µM]	TGI [5] [µM]	TGI [6] [µM]	TGI [7] [µM]	TGI [8] [µM]	TGI [9] [µM]	TGI [10] [µM]
CC1(C)OC[C@@H](O)[C@H](Br)CO1	> 100	> 100	> 100	> 100	> 100	> 100	> 100	> 100	> 100	–
NC(=O)c1c(NC=O)ncn1C1OCC(O)C(O)C1O (centres undefined)	–	–	> 100	–	> 100	> 100	> 100	> 100	> 100	> 100
O=C(OC/C=C1C=C(OC(=O)c2ccccc2)/C(=N/N(C(=O)c2ccccc2)c2ccccc2)O\1)c1ccccc1	25.6	12.4	19.7	18.7	–	23.6	22.5	21.8	19.7	13.3
COc1ccc(C2C3CCCC(C3=O)C(c3ccc(OC)cc3)N2N=O)cc1 (centres undefined)	25.4	59.6	> 100	–	20	> 100	> 100	–	82.7	97.5
CCOC(=O)C(O)(C(=O)OCC)c1cc(C(C)(C)C)c(O)c(C(C)(C)C)c1	> 100	–	> 100	> 100	> 100	> 100	> 100	> 100	> 100	> 100
Cc1ccc2oc3c(c(Br)c(Br)n3C)c(=O)c2c1	41.3	–	> 100	> 100	70.5	31.9	> 100	38.9	> 100	> 100
CCn1c2ccccc2c2ccc(C3C(C(=O)OC)=C(C)NC(C)=C3C(=O)OC)cc21	46	> 100	> 100	–	60.1	> 100	> 100	> 100	> 100	> 100
COc1cccc2cc(C(C)=O)c(=O)oc12	> 100	> 100	–	> 100	> 100	> 100	> 100	> 100	> 100	> 100
CC1(C)CCCCCC(C)(CCCO)C1=O (centres undefined)	> 100	> 100	> 100	> 100	> 100	> 100	> 100	–	> 100	> 100
Cc1ccc(O)c(C2=CC(c3cccc(Br)c3)SC(N)=N2)c1 (centres undefined)	–	–	32.8	62.9	78.9	> 100	> 100	46.1	41.3	46.5
CN1C(=O)CC2CCC(=O)N2c2cccnc21 (centres undefined)	–	> 100	> 100	> 100	> 100	> 100	> 100	> 100	> 100	> 100
CC(=O)C(=[N+]=[N-])C(=O)N(C)CCC#N	> 10	–	> 10	> 10	> 10	> 10	> 10	> 10	> 10	> 10
